# In patent publication US6448283B1, “Methods for preventing/treating damage to sensory hair cells and cochlear neurons” (Cephalon, Inc., priority 1998, dated 2002):
# “And” between values parts separate entries of the source, which are not always exact repeats. Identical values can stand only once. “Also recorded” adds a separate entry of the source.
# Experiments:
# [1] = system: outer hair cells in organotypic cultures of the neonatal organ of Corti; assay: Hair cell counts in neomycin-exposed cochlear explant cultures; format: cell-based, rat
# Method: (§1) The basal half of cochleas containing the basal and middle turns were dissected from postnatal day 2 Wistar rats. The cultures were maintained on Nuclepore filters (pore size […]; Pleasanton, Calif.) placed on a metal grid in F12 medium (Life Technologies, Gaithersburg, Md.) containing 15% fetal bovine serum (Life Technologies). After a 2-hour-long stabilization period, explants were exposed to 100 mM neomycin sulfate (Sigma, St Louis, Mo.) for 48 hr.
# (§2) Explants were fixed with 4% paraformaldehyde/0.5% glutaraldehyde in phosphate buffered saline (PBS), pH 7.4, for 30 min and dissected for surface preparations. They were stained with a 1:100 dilution of rhodamine-phalloidin in PBS containing 0.25% Triton X-l 00 overnight at 4° C. and mounted in Vectashield (Vector). Outer hair cell (OHC) numbers were quantified with a Zeiss Axiovert 100/135 epifluorescent microscope (Germany) connected to a Bio-Rad MRC-1024 confocal laser scanning system (Richmond, Calif.). Hair cells were characterized as missing if no stereocilia and cuticular plate were observed. Numbers of OHCs were evaluated using a 40×objective lens and an ocular grid. Nine to 1 fields filled by 30 OHCs in each of the 3 rows (when all of them were present) were studied from each explant. Basal and middle coils were analyzed separately. Three separate experiments, each including 4 explants of both conditions (neomycin and neomycin plus Formula II) were analyzed.
# as §1, with “μM” for “mM”, “hr. The compounds of Formula I and the compound of Formula I were added at 500 nM at the time of initiation of the cultures and every 12 hr thereafter. Neomycin plus vehicle was used as a control.” for “hr.”
# as §2, with “X-100” for “X-l 00”, “40x objective” for “40×objective”, “Several” for “Nine to 1”, “separately.” for “separately. Three separate experiments, each including 4 explants of both conditions (neomycin and neomycin plus Formula II) were analyzed.”
# [2] = system: outer sensory hair cells of the organ of Corti; assay: Cytocochleogram counts of lost outer sensory hair cells after noise trauma (Example 1); format: in vivo, guinea pig; details: day 21
# Method: (§3) Baseline hearing of 8 pigmented guinea pigs (200-300 g) was tested by ABR as described below. ABR is a measure of hearing function. Four animals were treated with daily subcutaneous (s.c.) injections of the compound of Formula II, 1 mg/kg, starting 24 hours prior to noise trauma and lasting until 21 days after exposure to the noise trauma. Four animals served as controls and received only vehicle (the fourth animal died under anaesthesia). All the animals were exposed to traumatic octave band noise, center frequency 4.0 kHz, 125 dB SPL (sound pressure level) for 105 min.
# After the treatment period of 21 days and measurement of ABRs, the animals were sacrificed and the temporal bones fixed by 4% PFA (paraformaldehyde) through perilymphatic perfusion. The left cochleas were dissected for surface specimens and the number of sensory hair cells in each auditory organ was evaluated by cytocochleograms. The upper halves of the cochleas were processed for cytocochleograms without embedding by staining cochlear whole mounts with rhodamine phalloidine (Molecular Probes, Eugene, Ore.) in PBS containing 0.25% Triton X-100 overnight at 4° C and mounted in Vectashield (Vector). Phalloidin is a specific marker for cellular F-actin. Basal halves of the cochleas were embedded in
# Epon and processed for cytocochleograms. Selected sections of Epon-embedded cochlear turns were processed for fine structural study by electron microscopy.
# [3] = system: hair cells (IHC, OHC) of the organ of Corti; assay: Cytocochleograms of missing hair cells after noise exposure (Example 2); format: in vivo, guinea pig; details: 2 weeks after noise exposure
# [4] = system: hair cells of cochlear explants; assay: TUNEL staining of hair cells in neomycin-exposed cochlear explants; format: cell-based, rat; details: 500 nM Formula II coincubated with neomycin; n=5 explants
# Method: Six, 12 and 24 hr after adding 100 μM neomycin to the medium, cochlear cultures were fixed with 4% paraformaldehyde in PBS for 30 min. The specimens were prepared for 5 um-thick paraffin sections. They were stained with a TUNEL-kit, mounted in Vectashield containing DAPI nuclear counterstain (Vector, Burlingame, Calif.), and viewed under an Olympus Provis microscope (Tokyo, Japan) using epifluorescence. In addition to TUNEL-staining, DNA fragmentation was verified under UV illumination using DAPI counterstain.
# [5] = system: pigmented guinea pigs exposed to traumatic octave band noise; assay: ABR hearing thresholds after noise trauma (Example 1); format: in vivo; details: guinea pig; 1 mg/kg s.c. daily from 24 h before noise to day 21; noise 4.0 kHz 125 dB SPL 105 min; across test frequencies; 21 days after exposure
# Method: as §3
# ABR thresholds were again determined 21 days after exposure to the noise trauma. ABR thresholds were measured with System II hardware and BioSig software (Tucker Davis Technology). Stimulus with 1 ms cos2 rise and fall and 18 ms plateau was presented with Beyer earphone connected to speculum (placed in the meatus of the external ear canal) at a rate of 20 Hz. Stimulus was calibrated against a Bruel & Kjaer 4134 microphone connected to a Bruel & Kjaer 2203 sound level meter. A Grass P15 preamplifier and custom amplifier provided gain of 10^5 and filtering of 0.3 to 3.0 kHz. Two responses were obtained at each intensity level. Thresholds were determined for the frequencies 2, 4, 8, 16 and 32 kHz from a set of responses at varying intensities with 5 dB intervals and 1000 sweeps near threshold.
# [6] = single animal, 1 mg/kg s.c. daily, noise 125 dB SPL 105 min, 1 mg/kg
smiles,measurement,setting,value
CCSCc1ccc2c(c1)c1c3c(c4c5cc(CSCC)ccc5n5c4c1n2C1C[C@](O)(C(=O)OC)[C@]5(C)O1)CNC3=O [Formula II],OHCs in the basal turn preserved,"[1]; 500 nM Formula II co-incubated with neomycin for 48 hr, n=12",Approximately 90%
same,neomycin-induced sensory hair cell loss/degeneration,"[1]; 500 nM compound together with neomycin, 48 hr, in words",reduced; also recorded: prevented hair cell loss
same,viability at 0.5 µM,"[1]; Rattus norvegicus, 48 h, compound 500 nM plus 100 μM neomycin 48 hr, NEO = neomycin plus vehicle, each line a separate count, read-out: % preserved",92%
same,"% OHC LOST, MEAN",[2]; mean of 4 Formula II animals,6.1%
same,"LOST OUTER SENSORY CELLS (OHC): OCH1, MEAN",[2]; mean of 4 Formula II animals,133
same,"LOST OUTER SENSORY CELLS (OHC): OCH2, MEAN",[2]; mean of 4 Formula II animals,107
same,"LOST OUTER SENSORY CELLS (OHC): OCH3, MEAN",[2]; mean of 4 Formula II animals,143
same,"TOTAL OHC LOST, MEAN",[2]; mean of 4 Formula II animals,383
same,% OHC LOST,[2]; [6],3.1% and 0.8% and 1.4% and 19.0%
same,LOST OUTER SENSORY CELLS (OHC): OCH1,[2]; [6],90 and 19 and 36 and 356
same,LOST OUTER SENSORY CELLS (OHC): OCH2,[2]; [6],25 and 3 and 18 and 381
same,LOST OUTER SENSORY CELLS (OHC): OCH3,[2]; [6],71 and 27 and 46 and 428
same,TOTAL OHC LOST,[2]; [6],186 and 49 and 100 and 1195
same,hair cell loss versus noise-exposed control (cytocochleograms),[3]; in words,rescues IHCs as well as OHCs of each of the 3 rows; also recorded: significantly lower percentage of sensory hair cells were lost
same,extent of the area of destruction of the organ of Corti,[3]; Formula II treated cochleas,0.1-0.2 mm
same,TUNEL-labeling in hair cells,[4],prevented
same,ABR threshold shift,[5],20-40 dB
